# Measured values published in patent publication US20090005435A1, “Novel Compounds, Pharmaceutical Compositions Containing Same, and Methods of Use for Same” (priority 2004, published 2009).
# What was measured:
# Format in all cases: cell-based
# [1] = tested on: Enterococcus faecalis (ATCC #29212); assay: Broth microdilution MIC, E. faecalis
# Protocol: (§1) A broth microdilution assay is used to assess the antimicrobial activity of the compounds. Compounds are tested at twofold serial dilutions, and the concentration that inhibits visible growth (OD600 at 10% of control) is defined as the MIC. Microorganisms tested include Staphylococcus aureus (ATCC #29213), Enterococcus faecalis (ATCC #29212), Pseudomonas aeruginosa (ATCC #27853), and Escherichia coli (ATCC #25922). The assay is performed in two growth media, Mueller Hinton Broth and Trypticase Soy Broth.
# (§2) A blood (Tsoy/5% sheep blood) agar plate is inoculated from frozen stocks maintained in T soy broth containing 10% glycerol and incubated overnight at 37° C. Colonies are suspended in sterile broth so that the turbidity matches the turbidity of a 0.5 McFarland standard. The inoculum is diluted 1:10 in sterile broth (Mueller Hinton or Trypticase soy) and 195 ul is dispensed per well of a 96-well plate. […]
# (§3) After 24 hours of incubation at 37° C., plates are read at OD600 on a Molecular Devices SpectraMax Plus Spectrophotometer. Average OD600 values are computed using SOFTmax Pro Software (Molecular Devices) and MIC values are determined by linear regression analysis using Prism version 3.02 (Graph Pad Software, San Diego). […]
# [2] = tested on: fatty acid synthesis in MCF-7 human breast cancer cells; assay: [14C]acetate incorporation into total lipids; conditions: MCF-7 cells
# Protocol: Measurement of [^14C]acetate Incorporation into Total Lipids and Determination of IC50 of Compounds
# This assay measures the incorporation of [^14C]acetate into total lipids and is a measure of fatty acid synthesis pathway activity in vitro. It is utilized to measure inhibition of fatty acid synthesis in vitro.
# MCF-7 human breast cancer cells cultured as above, are plated at 5×10^4 cells per well in 24-well plates. Following overnight incubation, the compounds to be tested, solubilized in DMSO, are added at 5, 10, and 20 μg/ml in triplicate, with lower concentrations tested if necessary. DMSO is added to triplicate wells for a vehicle control. C75 is run at 5 and 10 μg/ml in triplicate as positive controls. After 4 hours of incubation, 0.25 μCi of [^14C]acetate (10 μl volume) is added to each well.
# After 2 hours of additional incubation, medium is aspirated from the wells and 800 μl of chloroform:methanol (2:1) and 700 μl of 4 mM MgCl2 is added to each well. Contents of each well are transferred to 1.5 Eppendorf tubes, and spun at full-speed for 2 minutes in a high-speed Eppendorf Microcentrifuge 5415D. After removal of the aqueous (upper) layer, an additional 700 μl of chloroform:methanol (2:1) and 500 μl of 4 mM MgCl2 are added to each tube and then centrifuged for 1 minutes as above. […] Once dried, 3 ml of scintillant (APB #NBC5104) is added and vials are counted for ^14C. […]
# [3] = tested on: Escherichia coli (ATCC #25922); assay: Broth microdilution MIC, E. coli
# Protocol: as §1, §2, §3
smiles,measurement,setting,value
"C=CCC1(CC=C)C(=O)SC(C)(CCCCCCCC)C1=O (racemic) [Compound 4, 3,3-Diallyl-5-methyl-5-octyl-thiophene-2,4-dione]",MIC,"[1]; Enterococcus faecalis, ATCC29212, Trypticase Soy Broth, read-out: EF/Tsoy (MIC)",169 µg/mL
same,EF/MH (MIC),[1]; Mueller Hinton Broth,Neg
same,14C (IC50),[2],Neg
same,Ecoli/MH (MIC),[3]; Mueller Hinton Broth,Neg
same,Ecoli/Tsoy,[3]; Trypticase Soy Broth,Neg
